Measured values taken from US6342504B1, “Aromatic heterocyclic derivatives as enzyme inhibitors” (priority 1994, dated 2002).

Test system: FeCl3-induced occlusive thrombus in rat carotid artery
Assay: Rat model of FeCl3-induced platelet-dependent arterial thrombosis
Format: in vivo
From the text: Rat Model of FeCl3-induced Platelet-dependent Arterial Thrombosis
Kurz, K. D., Main, B. W., and Sandusky, G. E., Thromb. […] In this model a platelet-rich, occlusive thrombus is formed in a segment of the rat carotid artery treated locally with a fresh solution of FeCl3 absorbed to a piece of filter paper. The FeCl3 is thought to diffuse into the treated segment of artery and cause de-endothelialization of the affected vessel surface. […] The effect of a test compound on the incidence of occlusive thrombus formation following the application of the FeCl3 is monitored by ultrasonic flowtometry and is used as the primary end point. The use of flowtometry to measure carotid artery blood flow, is a modification of the original procedure in which thermal detection of clot formation was employed. Kurz, K. D., Main, B. W., and Sandusky, G. E., Thromb.
Male Harlan Sprague Dawley rats (420-450 g) were acclimated at least 72 hours prior to use and fasted for 12 hours prior to surgery with free access to water. The animals were prepared, anesthetized with Nembutal followed by the insertion of catheters for blood pressure monitoring, drug and anesthesia delivery. The left carotid artery was isolated by making a midline cervical incision followed by blunt dissection and spreading techniques to separate a 2 cm segment of the vessel from the carotid sheath. A silk suture is inserted under the proximal and distal ends of the isolated vessel to provide clearance for the placement of a ultrasonic flow probe (Transonic) around the proximal end of the vessel. The probe is then secured with a stationary arm.
The test compound was administered as a single intravenous bolus at the doses outlined in Table 4 after placement of the flow probe and 5 minutes prior to the thrombogenic stimulus. At t=0, a 3 mm diameter piece of filter paper (Whatman #3) soaked with 10 microliters of a 35% solution of fresh FeCl3 (made up in water) was applied the segment of isolated carotid artery distal to the flow probe. Blood pressure, blood flow, heart rate, and respiration were monitored for 60 minutes.
The incidence of occlusion (defined as the attainment of zero blood flow) was recorded as the primary end point.
This allows a direct comparison of the antithrombotic efficacy of [3-[(benzylsulfonyl)amino]-2-oxo-1,2-dihydropyridyl]acetyl-L-argininal, with other antithrombotic agents which have also been evaluated in this model as described above. Table 5 lists the ED50 values for several well known anticoagulant agents in this model compared to [3-[(benzylsulfonyl)amino]-2-oxo-1,2-dihydropyridyl]acetyl-L-argininal.

Row | Compound | ED50 for thrombus prevention (dose that prevents complete thrombotic occlusion in 50% of animals) (FeCl3 model of arterial thrombosis in rats) | ED50 (Rattus norvegicus, read-out: ED50 for thrombus prevention (dose that prevents complete thrombotic occlusion in 50% of animals))
1 | Hirulog ™ [reference compound] | 3.0 mg/kg | –
2 | CC1CNc2c(cccc2S(=O)(=O)N[C@@H](CCCNC(=N)N)C(=O)N2CC[C@@H](C)C[C@@H]2C(=O)O)C1 (stereo partly drawn) [Argatroban, 2R,4R-4-methyl-1-[N-2-(3-methyl-1,2,3,4-tetrahydro-8-quinolinesulfonyl)-L-argininal]-2-piperdinecarboxylic acid, reference compound] | – | 3.8 mg/kg
